These results are taken from US10266544B2, “Aryl substituted aminomethyl spectinomycin analogs as antibacterial agents” (ST. JUDE CHILDREN'S RESEARCH HOSPITAL, INC., priority 2013, dated 2019).

Structures can show the parent of a compound that is named as a salt. Where two headings read alike, the source gives them in different places.

Format in all cases: cell-based
In experiment [1] the test system is Klebsiella pneumoniae (ATCC 33495). Briefly: MIC determination, microbroth dilution. The following applies: ATCC33495. (In general: Broth dilution looks for growth in wells or tubes with falling amounts of substance.)
For experiment [2], the system named is Legionella pneumophila (ATCC 33153). The experiment is described as follows: microbe, parasite or virus in culture. The following applies: ATCC33153, 72 h, read-out: Zone of inhibition L.p.
Experiment [3] has as its system M. tuberculosis clinical isolates. Briefly: microbe, parasite or virus in culture. To be noted: Mycobacterium tuberculosis.
Experiment [4] deals with Streptococcus pneumoniae (R6). Briefly: MIC determination, microbroth dilution. To be noted: Streptococcus pneumoniae (R6); read-out: MIC S. pn.
Experiment [5] relates to Proteus mirabilis (ATCC 25933). The experiment is described as follows: MIC determination, microbroth dilution. The following applies: ATCC25933.
The test system of experiment [6] is Bacillus subtilis (ATCC 23857). The experiment is described as follows: MIC determination, microbroth dilution. To be noted: ATCC23857; Bacillus subtilis (ATCC 23857); read-out: MIC B.s.
The subject of experiment [7] is Neisseria meningitides (ATCC 13077). The experiment is described as follows: Disc diffusion assay. The following applies: ATCC13077, 4 μg per disc, read-out: Zone of inhibition N.m. (In general: Agar diffusion results depend on both activity and mobility in agar.)
The test system of experiment [8] is Neisseria gonorrhoeae (ATCC 49226). Briefly: Disc diffusion assay. The following applies: ATCC49226, 4 μg per disc, read-out: Zone of inhibition N.g.
In experiment [9] the test system is Burkholderia cepacia (ATCC 25416). The experiment is described as follows: MIC determination, microbroth dilution. To be noted: Burkholderia cepacia.
For experiment [10], the system named is acinetobacter baumannii (ATCC 19606). The experiment is described as follows: MIC determination, microbroth dilution. To be noted: ATCC19606.
For experiment [11], the system named is Pseudomonas aeruginosa (PA01). The experiment is described as follows: MIC determination, microbroth dilution.
For experiment [12], the system named is MRSA, Staphylococcus aureus (NRS70). Briefly: MIC determination, microbroth dilution. The following applies: Staphylococcus aureus (NRS70); read-out: MIC MRSA.
For experiment [13], the system named is Bacillus anthracis, Sterne 34F2. Briefly: microbe, parasite or virus in culture. The following applies: STERNE34F2, read-out: MIC B.a.
Experiment [14] concerns Moraxella catarrhalis. Briefly: MIC determination (Table 6).
Experiment [15] has as its system Bacillus anthracis. The experiment is described as follows: microbe, parasite or virus in culture. The following applies: read-out: MIC B.a.
Experiment [16] concerns Stenotrophomonas maltophilia (ATCC 13637). Briefly: MIC determination, microbroth dilution. To be noted: ATCC13637; Stenotrophomonas maltophilia (ATCC 13637); read-out: MIC S.m.
The subject of experiment [17] is Proteus vulgaris (ATCC 33420). Briefly: MIC determination, microbroth dilution. The following applies: ATCC33420.
In experiment [18] the test system is Haemophilus influenza (ATCC 49247). The experiment is described as follows: microbe, parasite or virus in culture. To be noted: ATCC49247; Haemophilus influenza; 4 μg per disc; range of at least two experiments; read-out: Zone of inhibition H.i.
The test system of experiment [19] is Staphylococcus aureus (ATCC 29213). The experiment is described as follows: MIC determination, microbroth dilution. The following applies: ATCC29213; Staphylococcus aureus (ATCC 29213); read-out: MIC S.a.
Experiment [20] deals with Escherichia coli (ATCC 700926). The experiment is described as follows: MIC determination, microbroth dilution. To be noted: ATCC700926; Escherichia coli (ATCC 700926); read-out: MIC E.c.
The subject of experiment [21] is Listeria monocytogenes. The experiment is described as follows: MIC determination (Table 6).
For experiment [22], the system named is Streptococcus pyogenes (ATCC 700294). The experiment is described as follows: MIC determination, microbroth dilution. To be noted: ATCC700294; Streptococcus pyogenes (ATCC 700294); read-out: MIC S. py.
Experiment [23] deals with E. coli K12 ΔtolC. Briefly: microbe, parasite or virus in culture. To be noted: Escherichia coli, read-out: MIC E.c. Δtolc.
Setting [24] is: ATCC25416, read-out: MIC B.c., Burkholderia cepacia (ATCC 25416).
[25] abbreviates: ATCC25416, read-out: MIC B.c., Burkholderia cepacia, Table 6.

As usually defined, the zone of inhibition is the size of the clear area around the sample on an inoculated plate. Regarding `CN[C@@H]1[C@H](O)[C@H](NC)[C@H]2O[C@]3(O)[C@H](O[C@@H]2[C@H]1O)O[C@H](C)C[C@@]3(O)CNCc1ccccc1Cl` [compound 56, 3′-(R)-3′-[(2-chloro)benzylaminomethyl]dihydrospectinomycin Trihydrobromide], the MIC in experiment [1] is above 200 µg/mL; in experiment [3] (H37RV, read-out: MIC H37Rv), above 200 µg/mL; in experiment [4] it was 100 µg/mL; in experiment [5], above 200 µg/mL; in [6], above 200 µg/mL; in experiment [9] (setting [24]) it was above 200 µg/mL. The MIC was above 200 µg/mL in experiment [9] (setting [25]); above 200 µg/mL in [10]; above 200 µg/mL in [11]; above 200 µg/mL in experiment [12]; above 200 µg/mL in experiment [13]; 100 µg/mL in [14]. For the same compound, the MIC in experiment [15], in experiment [16], in experiment [17], in [19], in experiment [20] and in [21] was above 200 µg/mL throughout. Moreover, the results for the MIC in [22] and in [23] were 50 µg/mL and above 200 µg/mL, respectively. The zone of inhibition at 4 µg/disc in experiment [2], in [7], in experiment [8] and in experiment [18] was 0 mm each time.
Take `CN[C@@H]1[C@H](O)[C@H](NC)[C@H]2O[C@]3(O)[C@H](O[C@@H]2[C@H]1O)O[C@H](C)C[C@@]3(O)CNCCN1CCOCC1` [compound 51, 3′-(R)-3′-[(2-morpholinoethyl)aminomethyl]dihydrospectinomycin tetrahydrochloride]: the MIC in experiment [1] was 100 to 200 µg/mL; in experiment [3] (H37RV, read-out: MIC H37Rv), 25 µg/mL; in experiment [3] (read-out: MIC TN022) it was 50 µg/mL; in [3] (read-out: MIC TN026) it was 100 µg/mL; in experiment [4] it was 100 µg/mL; in experiment [5] it was 50 to 100 µg/mL. Also, the MIC in experiment [6] was 50 to 100 µg/mL; in experiment [9] (setting [24]), above 200 µg/mL; in experiment [9] (setting [25]) it was above 200 µg/mL; in [10] it was above 200 µg/mL; in [11] it was at least 200 µg/mL; in experiment [12], above 200 µg/mL. For the same compound, the MIC in [13] was 100 to 200 µg/mL; in experiment [14] it was 3.1 µg/mL; in experiment [15] it was 100 to 200 µg/mL; in experiment [16], 50 µg/mL; in experiment [17] it was at least 200 µg/mL; in experiment [19], 100 to 200 µg/mL. In addition, the MIC was 50 µg/mL in experiment [20], 25 µg/mL in experiment [21], 100 µg/mL in experiment [22] and 25 to 50 µg/mL in experiment [23]. For the same compound, the zone of inhibition at 4 µg/disc in [2] was determined as 22 mm; in [7], 6 mm; in experiment [8], 0 mm; in experiment [18], 6 mm.
On to `CN[C@@H]1[C@H](O)[C@H](NC)[C@H]2O[C@]3(O)[C@H](O[C@@H]2[C@H]1O)O[C@H](C)C[C@@]3(O)CNCCc1cccs1` [compound 61, 3′-(R)-3′-[((2-(thiophen-2-yl)ethyl)aminomethyl]dihydrospectinomycintrihydrobromide], for which the MIC turned out to be 50 µg/mL in [1]; 6.3 µg/mL in [3] (H37RV, read-out: MIC H37Rv); 6.3 µg/mL in experiment [3] (read-out: MIC TN022); 6.3 µg/mL in experiment [3] (read-out: MIC TN026); 6.3 µg/mL in experiment [4]; 200 µg/mL in experiment [5]. Besides, the MIC in [6] is 6.3 µg/mL; in experiment [9] (setting [24]), at least 200 µg/mL; in experiment [9] (setting [25]), at least 200 µg/mL; in [10] it was above 200 µg/mL; in [11] it was above 200 µg/mL; in [12], 25 to 50 µg/mL. Moreover, the MIC in [13] was 12.5 to 50 µg/mL; in [14], 1.6 µg/mL; in [15], 12.5 to 50 µg/mL; in experiment [16] it was 12.5 µg/mL; in experiment [17], 100 to 200 µg/mL; in [19], 12.5 µg/mL. Besides, the MIC in [20] was 25 µg/mL; in [21] it was 6.3 µg/mL; in experiment [22] it was 12.5 µg/mL; in [23] it was 3.1 to 6.3 µg/mL. In addition, the zone of inhibition at 4 µg/disc in experiment [2] is 30 mm; in experiment [7], 14 mm; in experiment [8], 13 mm; in [18], 14 mm.
Regarding `CN[C@@H]1[C@H](O)[C@H](NC)[C@H]2O[C@]3(O)[C@H](O[C@@H]2[C@H]1O)O[C@H](C)C[C@@]3(O)CNCCc1cccnc1` [compound 59, 3′-(R)-3′-[((2-(pyridin-3-yl)ethyl)aminomethyl]dihydrospectinomycintetrahydrobromide], the MIC in experiment [1] is 100 µg/mL; in experiment [3] (H37RV, read-out: MIC H37Rv) it was 6.3 µg/mL; in experiment [3] (read-out: MIC TN022), 6.3 µg/mL; in experiment [3] (read-out: MIC TN026) it was 6.3 µg/mL; in experiment [6], 12.5 to 25 µg/mL; in experiment [9] (setting [24]), above 200 µg/mL. The MIC in experiment [9] (setting [25]) is above 200 µg/mL; in experiment [10], above 200 µg/mL; in experiment [12], above 200 µg/mL; in experiment [13], 50 µg/mL; in [14], 3.1 µg/mL; in experiment [15], 50 µg/mL. The MIC in experiment [19] was found to be 100 µg/mL; in [21] it was 12.5 µg/mL.
On to `CN[C@@H]1[C@H](O)[C@H](NC)[C@H]2O[C@]3(O)[C@H](O[C@@H]2[C@H]1O)O[C@H](C)C[C@@]3(O)CNCCc1ccc(C(F)(F)F)cc1` [compound 58, 3′-(R)-3′[(4-trifluoromethyl)phenethylaminomethyl]dihydrospectinomycin Trihydrochloride], for which the MIC in experiment [1] was above 200 µg/mL; in experiment [3] (H37RV, read-out: MIC H37Rv), 3.1 µg/mL; in experiment [3] (read-out: MIC TN022), 3.1 µg/mL; in experiment [3] (read-out: MIC TN026), 6.3 µg/mL; in [4] it was 1.6 to 3.1 µg/mL; in experiment [5] it was 200 µg/mL. The MIC in experiment [6] was 6.3 µg/mL; in [9] (setting [24]), above 200 µg/mL; in experiment [9] (setting [25]), above 200 µg/mL; in [10] it was above 200 µg/mL; in experiment [11], above 200 µg/mL; in [12], 50 to 100 µg/mL. The MIC was 12.5 to 25 µg/mL in [13]; 0.4 µg/mL in experiment [14]; 12.5 to 25 µg/mL in experiment [15]; 200 µg/mL in [17]; 12.5 µg/mL in [19]; 6.3 to 12.5 µg/mL in [20]. The MIC in [21] is 3.1 µg/mL; in experiment [22] it was 1.6 to 3.1 µg/mL; in experiment [23], 1.6 µg/mL. Also, the zone of inhibition at 4 µg/disc worked out at 26 mm in experiment [2], 16 mm in experiment [7], 19 mm in [8] and 19 mm in experiment [18].
For the compound `CN[C@@H]1[C@H](O)[C@H](NC)[C@H]2O[C@]3(O)[C@H](O[C@@H]2[C@H]1O)O[C@H](C)C[C@@]3(O)CNCCc1cnccn1` [compound 60, 3′-(R)-3′-[((2-(pyrazin-2-yl)ethyl)aminomethyl]dihydrospectinomycintetrahydrobromide], the MIC in experiment [1] was 100 to 200 µg/mL; in experiment [3] (H37RV, read-out: MIC H37Rv), 3.1 µg/mL; in experiment [3] (read-out: MIC TN022) it was 6.3 µg/mL; in [3] (read-out: MIC TN026) it was 6.3 µg/mL; in experiment [4] it was 25 µg/mL; in experiment [5], above 200 µg/mL. The MIC was 50 to 100 µg/mL in experiment [6]; above 200 µg/mL in experiment [9] (setting [24]); above 200 µg/mL in experiment [9] (setting [25]); above 200 µg/mL in [10]; above 200 µg/mL in experiment [11]; above 200 µg/mL in [12]. Also, the MIC was 100 µg/mL in experiment [13]; 6.3 µg/mL in experiment [14]; 100 µg/mL in experiment [15]; 25 µg/mL in [16]; above 200 µg/mL in [17]; 200 µg/mL in [19]. The MIC in [20] was determined as 100 µg/mL; in [21], 25 µg/mL; in experiment [22], 50 µg/mL; in [23], 50 µg/mL.
